Experimental data reported in US12564583B2, “Small molecules against cereblon to enhance effector T cell function” (H. LEE MOFFITT CANCER CENTER AND RESEARCH INSTITUTE, INC., priority 2016, dated 2026).
Values belong to the compound of their own block, whether it stands above or below them.

Assays:
mouse T cells [1] = assay: Flow cytometry of activated T cells (CD98, viability, division); format: cell-based
[2] = test system: BRD4 protein and c-Myc expression; assay: Western blot of BRD4 and c-Myc; format: cell-based, human and mouse
c-Myc mRNA = assay: qRT-PCR of c-Myc in T cells; format: cell-based; settings: primary mouse T cells, 72 h
Method: qRT-PCR: Isolated T cells from Crbn^+/+ and Crbn^−/− mice were lysed, homogenized (Qiashredder, Qiagen), and total RNA extracted (RNeasy, Qiagen) according to manufacturer protocol. Complementary DNA was generated from isolated RNA (iScript cDNA synthesis Kit, Bio-Rad). RNA expression was analyzed by quantitative real time-polymerase chain reaction (qRT-PCR) using Taqman Universal PCR Master Mix for Taqman probes (Thermo Fischer Scientific) against (cDNA) c-Myc (Mm00487804_m1) and (cDNA) β2M (Mm00437762_m1). Samples were run on an Applied Biosystems 7900 HT and Sequence Detection Systems software.

human TBD wild type = biological target: T1, human TBD wild type (Homo sapiens, UniProt Q96SW2); assay: Intrinsic tryptophan fluorescence assay (IF); format: binding
T1 construct: The gene coding for the human TBD (aa 317-425) was synthesized; GST (PreScission site, pGEX-6P-1) (N, cleaved yes); made in house; host or cells: E. coli Rosetta 2(DE3)pLysS
From the text: Intrinsic tryptophan fluorescence assay: Binding of compounds to wild-type and mutant TBD was monitored by fluorescence spectroscopy, using an adapted previously published method (14). All chemicals used in this assay were purchased from Sigma-Aldrich unless otherwise stated. In this assay, changes in emission spectra are induced by interactions of these compounds with the three Trp residues (Trp380, Trp386 and Trp400) in the binding site (15, 16). […] A 0.5% final DMSO concentration was used in each well. […] All measurements were done in triplicate and corrected for inner filter effect to subtract for ligand-associated fluorescence, as described (17). […] Graph plotting and curve fitting to obtain apparent dissociation constant (KD) values were calculated by fitting the relative change in intrinsic fluorescence at 340 nm (1-F/F0) versus ligand concentration to a nonlinear regression with one-site binding hyperbola with GraphPad Prism Sofware (GraphPad Software, La Jolla, CA).

[3] = biological target: thalidomide binding domain (TBD) of cereblon (Homo sapiens, UniProt Q96SW2); assay: Cereblon binding (DSF, FP/FI); settings: for inhibition at 200 µM: read-out: Cereblon Binding (≥50% inhibition at 200 μM)
Method: Several libraries are available for screening inhibitors. Virtual analysis was formulated and then theoretical design of chemical test kit and virtual screen of test kit were carried out. Physical binding studies were also completed for the initial compounds using DSF and FP assays after they are fully tested. TEST KITs that represent the compounds identified from each of the available chemical libraries based on virtual chemical structures were also made.

K562 = assay: Viability of sensitive cell line relative to DMSO; format: cell-based
THP-1 = assay: Viability of sensitive cell line relative to DMSO; format: cell-based
U-937 = assay: Viability of sensitive cell line relative to DMSO; format: cell-based
HL-60 = assay: Viability of sensitive cell line relative to DMSO; format: cell-based
[4] = Viability of sensitive cell line relative to DMSO; format: cell-based; set-up: concentration or dose not given beside the values; settings: human, lymphocytes
U266 = assay: Viability of sensitive cell line relative to DMSO; format: cell-based, human
Method: (§1) For proliferation studies, 1-2×10^4 cells per well were seeded in a 96-well plate and were treated with using cell-counting-8 kit (CCK8) (Dojindo, Rockville, MD) according to manufacturer's protocol.

MM1.S = assay: Viability of sensitive cell line relative to DMSO; format: cell-based, human
Method: as §1

mouse T cells [5] = assay: IL-2 production by stimulated T cells; format: cell-based; settings: 10 μM, ± anti-CD28
human T cells [6] = assay: IL-2 production by stimulated T cells; format: cell-based; settings: anti-CD3 stimulated, relative to DMSO
[7] = test system: Human multiple myeloma cell lines U266, H929, MM1.S, and OPM2; assay: Growth suppression of multiple myeloma cells; format: cell-based; settings: for IC50: Homo sapiens, Multiple myeloma cell, read-out: IC50 doses
Method: as §1

human T cells [8] = assay: Viability and proliferation of activated T cells; format: cell-based
IL-2 = IL-2 relative to DMSO; format: cell-based
[9] = Viability relative to DMSO; format: cell-based; set-up: concentration or dose not given beside the values

Chain of thalidomide binding domain (TBD) of cereblon (Q96SW2 318-426 limits assumed): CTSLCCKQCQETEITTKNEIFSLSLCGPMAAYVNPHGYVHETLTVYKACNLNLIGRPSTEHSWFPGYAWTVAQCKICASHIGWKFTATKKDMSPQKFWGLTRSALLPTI
T1 sequence (Q96SW2 317-425): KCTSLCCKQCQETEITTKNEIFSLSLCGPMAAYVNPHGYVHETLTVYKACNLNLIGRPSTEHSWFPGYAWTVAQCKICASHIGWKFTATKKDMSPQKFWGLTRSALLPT

Structure (SMILES): Cc1sc2c(c1C)C(c1ccc(Cl)cc1)=N[C@@H](CC(=O)OC(C)(C)C)c1nnc(C)n1-2 [JQ1]
proliferation (mouse T cells [1]): compromised | surface expression of CD98 (mouse T cells [1]): reduction | viability (mouse T cells [1]): compromised | BRD4 protein level ([2]; activated mouse T cells, not dependent on CRBN): slight reduction in protein expression | c-Myc mRNA (c-Myc mRNA): Suppression | binding affinity for CRBN-TBD (human TBD wild type): does not bind

Structure (SMILES): Cc1sc2c(c1C)C(c1ccc(Cl)cc1)=N[C@@H](CC(=O)NCCCCNC(=O)COc1cccc3c1C(=O)N(C1CCC(=O)NC1=O)C3=O)c1nnc(C)n1-2 (stereo partly shown) [dBET1]
surface expression of CD98 (mouse T cells [1]): reduces the percentage of cells expressing the c-Myc target CD98 | viability (mouse T cells [1]): suppresses viability | BRD4 protein and c-Myc expression ([2]; human T cells, mouse T cells, MM1.S, 5TGM1): dramatically suppressed

Structure (SMILES): O=C1CCC(NCCc2ccccn2)C(=O)N1 (stereo not shown)
inhibition at 200 µM [3]: > 50% | Viability (%) (Relative to DMSO) (K562): 80.0% | Viability (%) (Relative to DMSO) (THP-1): 98.8% | Viability (%) (Relative to DMSO) (U-937): 58.4% | Viability (%) (Relative to DMSO) (HL-60): 81.8% | viability [4]: 91.1% | Viability (%) (Relative to DMSO) (U266): 27.0% | Viability (%) (Relative to DMSO) (MM1.S): 29.9%

Structure (SMILES): CN(Cc1ccccc1)C1CC(=O)NC1=O (stereo not shown)
Cereblon Binding (≥50% inhibition at 200 μM) [3]: No | Viability (%) (Relative to DMSO) (K562): 116.7% | Viability (%) (Relative to DMSO) (THP-1): 32.6% | Viability (%) (Relative to DMSO) (U-937): 98.5% | Viability (%) (Relative to DMSO) (HL-60): 10.15% | viability [4]: 96.8% | Viability (%) (Relative to DMSO) (U266): 0% | Viability (%) (Relative to DMSO) (MM1.S): 1.1%

IC50 [7]: 7 to 16 µM
Structure (SMILES): Nc1cccc2c1CN(C1CCC(=O)NC1=O)C2=O (stereo not shown) [Lenalidomide, lenalidomide]
lenalidomide-induced increase in IL-2 (mouse T cells [5]): only human T cells displayed the expected lenalidomide-induced increase in IL-2 | levels of IL2 mRNA and protein (human T cells [6]): significantly increased

Structure (SMILES): Nc1cccc2c1C(=O)N(C1CCC(=O)NC1=O)C2=O (stereo not shown) [Pomalidomide, pomalidomide]
proliferation (human T cells [8]): increase proliferation | relative viability (human T cells [8]; 72 h): no effect on viability | IC50 [7]: 0.05 to 0.61 µM

Structure (SMILES): CNc1ccccc1C(=O)NCCNC1CC(=O)NC1=O (stereo not shown)
Cereblon Binding (≥50% inhibition at 200 μM) [3]: No | Viability (%) (Relative to DMSO) (K562): 21.1% | Viability (%) (Relative to DMSO) (THP-1): 41.1% | Viability (%) (Relative to DMSO) (U-937): 6.3% | Viability (%) (Relative to DMSO) (HL-60): 12.0% | viability [4]: 92.6% | Viability (%) (Relative to DMSO) (U266): 0.1% | Viability (%) (Relative to DMSO) (MM1.S): 53.6%

Structure (SMILES): Nc1cccc2c1CN(C1CCC(=O)NC1=O)C2=O (stereo not shown) [drawing 123]
viability [4]: 99.9%

Structure (SMILES): O=C1CCC(N2C(=O)c3ccccc3C2=O)C(=O)N1 (stereo not shown) [Thalidomide, thalidomide]
growth suppression ([7]; doses up to 200 μM): no suppressive function

Structure (SMILES): Cn1c(=O)ccn(CCCCc2ccccc2)c1=O
Cereblon Binding (≥50% inhibition at 200 μM) [3]: No | Viability (%) (Relative to DMSO) (K562): 17.7% | Viability (%) (Relative to DMSO) (THP-1): 32.8% | Viability (%) (Relative to DMSO) (U-937): 50.5% | Viability (%) (Relative to DMSO) (HL-60): 39.3% | viability [4]: 94.2% | Viability (%) (Relative to DMSO) (U266): 32.7% | Viability (%) (Relative to DMSO) (MM1.S): 43.0%

Structure (SMILES): COC(=O)c1ccccc1NC(=O)[C@H](CC(=O)NC1CCC(=O)NC1=O)NC(=O)OC(C)(C)C (stereo partly shown)
Cereblon Binding (≥50% inhibition at 200 μM) [3]: Yes* | IL-2 (%) (Relative to DMSO) (IL-2): 25.0% | viability [9]: 85.6%

Structure (SMILES): CN(Cc1ccc2c(c1)OCO2)C1CCC(=O)NC1=O (stereo not shown)
inhibition at 200 µM [3]: > 50% | IL-2 (%) (Relative to DMSO) (IL-2): 43% | viability [9]: 106%

Structure (SMILES): O=C1C[C@H](N2C(=O)c3ccccc3C2=O)C(=O)N1
Cereblon Binding (≥50% inhibition at 200 μM) [3]: No | IL-2 (%) (Relative to DMSO) (IL-2): 44.4% | viability [9]: 85.6%

Structure (SMILES): O=C1CCC(N2CCc3ccc(Cl)cc3C2)C(=O)N1 (stereo not shown)
Cereblon Binding (≥50% inhibition at 200 μM) [3]: Yes* | IL-2 (%) (Relative to DMSO) (IL-2): 69.9% | viability [9]: 93.2%

Structure (SMILES): O=C1CCC(NCc2ccccc2)C(=O)N1 (stereo not shown)
inhibition at 200 µM [3]: > 50% | IL-2 (%) (Relative to DMSO) (IL-2): 40.4% | viability [9]: 98%

Structure (SMILES): O=C1CCC(NCCNC(=O)c2ccccc2)C(=O)N1 (stereo not shown)
Cereblon Binding (≥50% inhibition at 200 μM) [3]: Yes* | IL-2 (%) (Relative to DMSO) (IL-2): 46.7% | viability [9]: 68.2%

Structure (SMILES): O=C1CC(N2C(=O)c3cccc([N+](=O)[O-])c3C2=O)C(=O)N1 (stereo not shown)
Cereblon Binding (≥50% inhibition at 200 μM) [3]: No | IL-2 (%) (Relative to DMSO) (IL-2): 133.4% | viability [9]: 81.9%
